# Tested on: 233499-124-R-J3-PDC spheroids with HUVEC/MSC, viability
# Assay: Anticancer human tumor 233499-124-R-J3-PDC patient-derived colon adenocarcinoma cell line growth inhibition [PI3K]
# Conditions: for IC50: curve of first compound; for viability, T/C: stronger effect = lower value
# Excerpt: Combinatorial screen of targeted agents with the PI3K inhibitors inavolisib, alpelisib, duvelisib, and copanlisib in multi-cell type tumor spheroids
# A high-throughput screen of multi-cell type tumor spheroids was designed to identify active combinations of targeted small molecules and PI3K pathway inhibitors. Complex spheroids include a stromal component modeled by human endothelial cells (HUVEC) and fibroblasts modeled by human mesenchymal stem cells (MSCs). The concentration ranges selected for each drug and investigational agent were based upon clinically achievable concentrations if the clinical Cmax of the agent was known.
# Compounds. The drugs and investigational agents: inavolisib (NSC800729), alpelisib (NSC765974), duvelisib (NSC772469), copanlisib (NSC816437), ipatasertib (NSC767898), afuresertib (NSC778305), talazoparib (NSC767125), sapanisertib (NSC764658), selumetinib (NSC741078), tovorafenib (DAY101, NSC766906), vemurafenib (NSC761431), ravoxertinib (NSC781343), sotorasib (NSC818433), MRTX1133 (NSC 836407), abemaciclib (NSC 768073), palbociclib (NSC758247), venetoclax (NSC 766270), SY5609 (NSC837396), enzalutamide (NSC755605), and darolutamide (NSC825331), were obtained from the National Cancer Institute (NCI) Developmental Therapeutics Program Chemical Repository. The FDA-approved anticancer drug set is available from the NCI Developmental Therapeutics Program. […] The stock solutions were prepared in dimethyl sulfoxide (DMSO, Sigma-Aldrich, St. Louis, MO, cat. D2650) at 800-fold the tested concentration and stored at -70 degrees C prior to their use. All drugs and investigational agents were tested over a range starting from a high concentration at or near the clinical Cmax and decreasing in half-log increments. If the clinical Cmax for an agent had not been determined, the highest concentration tested was 10 microM.
# Cell Culture. All cells were maintained in an incubator at 37 degrees C and 5% CO2 with 95% humidity. The PDC lines were cultured according to standard operating procedures established by the NCI PDMR (https://pdmr.cancer.gov/sops/default.htm). All PDCs were thawed and cultured in Matrigel-coated flasks prepared with a working solution of 1X Ham's F-12 nutrient mix, without supplementation (Invitrogen, Waltham, MA, cat. 11765054), 100 U/mL penicillin-streptomycin (Invitrogen, cat. 15140122), and 2.5% Matrigel (Corning Inc., Corning, NY, cat. 354248) for the first three passages. The 354836-022-R-J1-PDC, 475296-252-R-J1-PDC, and 997726-040-R-J2-PDC lines were cultured in 6A media, which includes advanced DMEM/F-12 (Thermo Fisher Scientific, cat. 12634028), 10 mM HEPES (Thermo Fisher Scientific, cat. 15630080), 1X GlutaMAX supplement (Thermo Fisher Scientific, cat. 35050061), 0.1 mg/mL primocin (InvivoGen, San Diego, CA, cat. ant-pm-2), 10% defined fetal bovine serum, heat inactivated (HyClone Laboratories Inc., Logan, UT, cat. SH30070.03HI), 50% L-WRN conditioned media (ATCC, cat. CRL-3276), 1.25 mM N-Acetyl-L-cysteine (Sigma-Aldrich, cat. A9165), 10 mM nicotinamide (Sigma-Aldrich, cat. N0636), 1X B-27 supplement (Thermo Fisher Scientific, cat. 17504044), 1X N-2 supplement (Thermo Fisher Scientific, cat. 17502048), and 10 microM Y-27632 dihydrochloride (Tocris Bioscience, Bristol, United Kingdom, cat. 1254). The 624824-186-R-J2-PDC line was cultured in 6C/Colon 1B media, which includes all 6A media components plus 50 ng/mL human EGF recombinant protein (Thermo Fisher Scientific, cat. PHG0311). […]
# [1] = second compound 0.00316 µM, first compound 0.0316 µM
# [2] = second compound 0.00316 µM, first compound 0.1 µM
# [3] = second compound 0.00316 µM, first compound 0.316 µM
# [4] = second compound 0.00316 µM, first compound 1 µM
# [5] = second compound 0.00316 µM, first compound 3.16 µM
# [6] = second compound 0.00316 µM, first compound 10 µM
# [7] = second compound 0.01 µM, first compound 0.0316 µM
# [8] = second compound 0.01 µM, first compound 0.1 µM
# [9] = second compound 0.01 µM, first compound 0.316 µM
# [10] = second compound 0.01 µM, first compound 1 µM
# [11] = second compound 0.01 µM, first compound 3.16 µM
# [12] = second compound 0.01 µM, first compound 10 µM
# [13] = second compound 0.0316 µM, first compound 0.0316 µM
# [14] = second compound 0.0316 µM, first compound 0.1 µM
# [15] = second compound 0.0316 µM, first compound 0.316 µM
# [16] = second compound 0.0316 µM, first compound 1 µM
# [17] = second compound 0.0316 µM, first compound 3.16 µM
# [18] = second compound 0.0316 µM, first compound 10 µM
# [19] = second compound 0.1 µM, first compound 0.0316 µM
# [20] = second compound 0.1 µM, first compound 0.1 µM
# [21] = second compound 0.1 µM, first compound 0.316 µM
# [22] = second compound 0.1 µM, first compound 1 µM
# [23] = second compound 0.1 µM, first compound 3.16 µM
# [24] = second compound 0.1 µM, first compound 10 µM
# [25] = second compound 0.316 µM, first compound 0.0316 µM
# [26] = second compound 0.316 µM, first compound 0.1 µM
# [27] = second compound 0.316 µM, first compound 0.316 µM
# [28] = second compound 0.316 µM, first compound 1 µM
# [29] = second compound 0.316 µM, first compound 3.16 µM
# [30] = second compound 0.316 µM, first compound 10 µM
# [31] = second compound 1 µM, first compound 0.0316 µM
# [32] = second compound 1 µM, first compound 0.1 µM
# [33] = second compound 1 µM, first compound 0.316 µM
# [34] = second compound 1 µM, first compound 1 µM
# [35] = second compound 1 µM, first compound 3.16 µM
# [36] = second compound 1 µM, first compound 10 µM
# 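Also: spheroids exposed to agents for seven days before readout.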
# 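For viability, T/C in this document: percent viability relative to DMSO vehicle control taken as 100%.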
smiles,measurement,setting,value
CCCS(=O)(=O)Nc1ccc(F)c(C(=O)c2c[nH]c3ncc(-c4ccc(Cl)cc4)cc23)c1F + CC(Nc1ccc2c(c1)OCCn1cc(N3C(=O)OCC3C(F)F)nc1-2)C(N)=O,IC50,second compound 0.00316 µM,5.62 µM
same,IC50,second compound 0.01 µM,5.14 µM
same,IC50,second compound 0.0316 µM,4.72 µM
same,IC50,second compound 0.1 µM,5.02 µM
same,IC50,second compound 0.316 µM,3.38 µM
same,IC50,second compound 1 µM,1.79 µM
same,"viability, T/C",[1],80%
same,"viability, T/C",[2],97.9%
same,"viability, T/C",[3],98.6%
same,"viability, T/C",[4],105%
same,"viability, T/C",[5],104%
same,"viability, T/C",[6],2.87%
same,"viability, T/C",[7],90.2%
same,"viability, T/C",[8],94.5%
same,"viability, T/C",[9],97.1%
same,"viability, T/C",[10],98.2%
same,"viability, T/C",[11],84.9%
same,"viability, T/C",[12],2.03%
same,"viability, T/C",[13],77.3%
same,"viability, T/C",[14],90.3%
same,"viability, T/C",[15],85.8%
same,"viability, T/C",[16],101%
same,"viability, T/C",[17],75.8%
same,"viability, T/C",[18],1.54%
same,"viability, T/C",[19],84.8%
same,"viability, T/C",[20],83.9%
same,"viability, T/C",[21],88.5%
same,"viability, T/C",[22],88.3%
same,"viability, T/C",[23],82.8%
same,"viability, T/C",[24],0.93%
same,"viability, T/C",[25],86.6%
same,"viability, T/C",[26],66.6%
same,"viability, T/C",[27],66.9%
same,"viability, T/C",[28],69.2%
same,"viability, T/C",[29],54.5%
same,"viability, T/C",[30],4.16%
same,"viability, T/C",[31],73%
same,"viability, T/C",[32],45.4%
same,"viability, T/C",[33],54.9%
same,"viability, T/C",[34],61%
same,"viability, T/C",[35],41.8%
same,"viability, T/C",[36],2.26%
CC(Cn1ccc(-c2ccc(C#N)c(Cl)c2)n1)NC(=O)c1cc(C(C)O)[nH]n1 (stereo unspecified) + COc1c(OCCCN2CCOCC2)ccc2c3n(c(=NC(=O)c4cnc(N)nc4)nc12)CCN3,IC50,second compound 0.00316 µM,> 10 µM
same,IC50,second compound 0.01 µM,> 10 µM
same,IC50,second compound 0.0316 µM,> 10 µM
same,IC50,second compound 0.1 µM,5.04 µM
same,IC50,second compound 0.316 µM,< 0.0316 µM
same,IC50,second compound 1 µM,< 0.0316 µM
same,"viability, T/C",[1],92.3%
same,"viability, T/C",[2],107%
same,"viability, T/C",[3],102%
same,"viability, T/C",[4],102%
same,"viability, T/C",[5],101%
same,"viability, T/C",[6],96.8%
same,"viability, T/C",[7],91.7%
same,"viability, T/C",[8],98.2%
same,"viability, T/C",[9],73.9%
same,"viability, T/C",[10],102%
same,"viability, T/C",[11],98%
same,"viability, T/C",[12],86.5%
same,"viability, T/C",[13],86.6%
same,"viability, T/C",[14],98.5%
same,"viability, T/C",[15],100%
same,"viability, T/C",[16],95.3%
same,"viability, T/C",[17],77.1%
same,"viability, T/C",[18],95.3%
same,"viability, T/C",[19],83.7%
same,"viability, T/C",[20],74.1%
same,"viability, T/C",[21],70.4%
same,"viability, T/C",[22],79%
same,"viability, T/C",[23],55.1%
same,"viability, T/C",[24],42.4%
same,"viability, T/C",[25],30.9%
same,"viability, T/C",[26],35.2%
same,"viability, T/C",[27],32.5%
same,"viability, T/C",[28],28.4%
same,"viability, T/C",[29],23.6%
same,"viability, T/C",[30],27%
same,"viability, T/C",[31],14.8%
same,"viability, T/C",[32],12.6%
same,"viability, T/C",[33],7.23%
same,"viability, T/C",[34],8.58%
same,"viability, T/C",[35],5.75%
same,"viability, T/C",[36],5.05%
CCN1CCN(Cc2ccc(Nc3ncc(F)c(-c4cc(F)c5nc(C)n(C(C)C)c5c4)n3)nc2)CC1 + COc1c(OCCCN2CCOCC2)ccc2c3n(c(=NC(=O)c4cnc(N)nc4)nc12)CCN3,IC50,second compound 0.00316 µM,> 1 µM
same,IC50,second compound 0.01 µM,0.816 µM
same,IC50,second compound 0.0316 µM,0.33 µM
same,IC50,second compound 0.1 µM,0.00908 µM
same,IC50,second compound 0.316 µM,< 0.00316 µM
same,IC50,second compound 1 µM,< 0.00316 µM
same,"viability, T/C","second compound 0.00316 µM, first compound 0.00316 µM",81.7%
same,"viability, T/C","second compound 0.00316 µM, first compound 0.01 µM",92%
same,"viability, T/C",[1],79.2%
same,"viability, T/C",[2],60.8%
same,"viability, T/C",[3],77.3%
same,"viability, T/C",[4],48.6%
same,"viability, T/C","second compound 0.01 µM, first compound 0.00316 µM",84.3%
same,"viability, T/C","second compound 0.01 µM, first compound 0.01 µM",105%
same,"viability, T/C",[7],97%
same,"viability, T/C",[8],83.6%
same,"viability, T/C",[9],71.2%
same,"viability, T/C",[10],45.5%
same,"viability, T/C","second compound 0.0316 µM, first compound 0.00316 µM",89.2%
same,"viability, T/C","second compound 0.0316 µM, first compound 0.01 µM",85.6%
same,"viability, T/C",[13],80.9%
same,"viability, T/C",[14],57%
same,"viability, T/C",[15],59.6%
same,"viability, T/C",[16],23.7%
same,"viability, T/C","second compound 0.1 µM, first compound 0.00316 µM",81.3%
same,"viability, T/C","second compound 0.1 µM, first compound 0.01 µM",46%
same,"viability, T/C",[19],49.2%
same,"viability, T/C",[20],49.1%
same,"viability, T/C",[21],44.4%
same,"viability, T/C",[22],32%
same,"viability, T/C","second compound 0.316 µM, first compound 0.00316 µM",34.3%
same,"viability, T/C","second compound 0.316 µM, first compound 0.01 µM",16.4%
same,"viability, T/C",[25],30.5%
same,"viability, T/C",[26],20.7%
same,"viability, T/C",[27],23.7%
same,"viability, T/C",[28],22.9%
same,"viability, T/C","second compound 1 µM, first compound 0.00316 µM",8.08%
same,"viability, T/C","second compound 1 µM, first compound 0.01 µM",11.5%
same,"viability, T/C",[31],10.4%
same,"viability, T/C",[32],9.39%
same,"viability, T/C",[33],7.45%
same,"viability, T/C",[34],11.2%

# — PubChem BioAssay AID1963984 (Molecular Pharmacology Branch, DTP, NCI, 2024)
